The test system of assay [1] is HCT116. The assay is described as follows: Cytotoxicity, propidium iodide assay, HCT116. The assay is classed as cell-based. The settings on record: Homo sapiens, HCT-116; Colon, HCT116, 48 hours treatment; read-out: IC50, C4a (HCT116). Put shortly:
(§1)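 IC50 values come from percentage viability curves, with untreated wells set as 100%. Propidium iodide (7 μg/ml) fluorescence was measured after a 48-hour compound exposure and a freeze at −70° C. of at least 24 hours.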

The subject of assay [2] is AsPC 1. The assay is described as follows: Cytotoxicity, propidium iodide assay, AsPC 1. The assay is classed as cell-based. The settings on record: Homo sapiens, ASPC1; Pancreatic, AsPC 1, 48 hours treatment; read-out: IC50, C5b (AsPC 1). As for the experimental part:
The assay was designed as in the reference, Anticancer Drugs, 2002, 13, 1-8, the disclosure of which is incorporated by reference for the teaching of the assay.
Cells from cell lines as mentioned in the table given below were seeded at a density of 3000 cells/well in a white opaque 96-well plate. Following incubation at 37° C./5% CO2 for a period of 18-24 hours, the cells were treated with various concentrations (stock solution was prepared in DMSO and subsequent dilutions were made in media as per ATCC guidelines) of the compounds of Example 1-40 was for a period of 48 hours. At the end of treatment, the spent culture medium was discarded, the cells were washed with 1×PBS and 200 μl of 7 μg/ml propidium iodide was added to each well. The plates were frozen at −70° C. for at least 24 hours. For analysis, the plates were brought to RT, allowed to thaw and were read in PoleStar fluorimeter with the fluorescence setting. The percentage of viable cells in the non-treated set of wells was considered to be 100 and the percentage viability following treatment was calculated accordingly. IC50 values were calculated from graphs plotted using these percentages. Table 4 depicts the IC50 values of compounds of Example 1-40 in individual cell lines.
The abbreviations for the Cell Lines as used in Table 4 are: […]

The test system of assay [3] is U 373. The assay is described as follows: Cytotoxicity, propidium iodide assay, U 373. It is filed as cell-based. The settings on record: Homo sapiens, U373 MG; Glioblastoma, U 373, 48 hours treatment; read-out: IC50, C7a (U 373). In a few lines:
as §1

In assay [4] the test system is PI3K α. The assay is described as follows: PI3K activity assay, cell-based ELISA of AKT (Ser 473) phosphorylation. The settings on record: Homo sapiens, Ovarian cell line A2780, 20% FCS stimulation. Here is the method: (§2) The assay was designed as in the reference, Biochemical Journal, 2000, 350, 717-722, the disclosure of which is incorporated by reference for the teaching of the assay.
(§3) Seed cells (Ovarian cell line A2780, ATCC) were plated in a 96 well microtitre plate at a density of 50,000 cells/cm^2 in appropriate complete cell culture medium. The cells were allowed to adhere for 18-24 hours. The cells were allowed to starve for 24 hours. The cells were pretreated (in triplicates) with the compounds of Example 1-40 (stock solution was prepared in DMSO and subsequent dilutions were made in kinase buffer) at a concentration of 10 μM for one hour. Then the cells were stimulated with 20% FCS for 30 minutes. A typical assay would consist of a set of unstimulated cells, a set of stimulated cells and a set of cells treated with compounds of Example 1-40 and a set of cells treated with the stimulator. The medium was discarded. The cells were fixed with 100 μL of 3.7% formaldehyde for 15 minutes. The formaldehyde was discarded by inverting the plate and tapping it on a thick tissue paper layer to remove traces. The cells were washed and permeabilized with 200 μL PBS+Triton-X 100 solution (hereafter referred to as PBS-Triton, containing 0.1% triton-X 100 in 1×PBS) three times, incubating the cells each time for 5 minutes. 100 μL blocking solution (10% FCS in PBS-Triton) was added and incubated for 1 hour at 25° C. The blocking solution was discarded and cells were incubated with the primary antibody in PBS-Triton at a dilution of 1:500 for 1 hour at RT (25° C.). [The primary antibody is Phospho-AKT (Ser 473); Cell Signaling; USA, Cat. No. 9271]. The primary antibody solution was discarded and the cells were washed 3 times with PBS-Triton solution and incubated with the HRP-conjugated secondary antibody in PBS-Triton at a dilution of 1:500 for 1 hour at RT (25° C.). The cells were washed 3 times with PBS-Triton followed by two washes with PBS (to remove traces of triton-X 100). The OPD (o-phenylene diamine dihydrochloride) substrate was prepared for detection of the signal by dissolving one tablet set (two tablets) of SigmaFast OPD (Sigma, USA, Cat No. P9187) in 20 mL distilled water. It should be kept protected from light. 100 μL OPD solutions was added to the wells and the plate was incubated in the dark for 3-5 minutes (depending upon the development of the color). The reaction was stopped by adding 50 μL 2 NH2SO4. The absorbance was measured at 490 nm. The values were expressed in the treated samples, in terms of percentage or fold decrease in AKT phosphorylation with respect to the induced sample. PI-103 (Calbiochem, USA) was used as a standard.
For orientation: An ELISA detects its analyte on a solid surface through an enzyme-linked reagent.

Assay [5] deals with mTOR. The assay is described as follows: mTOR activity assay (cell-based). The settings on record: Homo sapiens, Ovarian cell line A2780. Here is the method:
as §2, §3

In assay [6] the test system is colorectal cancer (cell line HCT116) tumor model. The assay is described as follows: In vivo efficacy, HCT116 xenograft model in SCID mice. The settings on record: 50 mpk oral, every day for 14 days. Here is the method:
In-vivo efficacy of the compounds of the present invention was tested in colorectal cancer (cell line HCT116) tumor model Animals were housed and cared for in accordance with the Guidelines in force published by CPCSEA (Committee for the Purpose of Control and Supervision of Experiments on Animals), Tamil Nadu, India. Procedures using laboratory animals were approved by the IAEC (Institutional Animal Ethics Committee) of the Research Center of Piramal Life Sciences Limited, Mumbai, India.
Compound storage: All the compounds including standard were stored at 4-8° C. in an amber colored bottle. The compounds in solutions were also maintained at 4-8° C. in a refrigerator. Sample for animal injection was made fresh everyday.
Dose preparation: Required compound was weighed and mixed with 0.5% (w/v) carboxymethyl cellulose (CMC) and triturated with Tween-20 (secundum artum) with gradual addition of water to make up the final concentration.
Efficacy study in SCID mice: Severely Combined Immune-Deficient (SCID strain-CBySmn.CB17-Prkdc^scid/J, The Jackson Laboratory, Stock #001803) male mice weighing about 20 g of 6-9 weeks old were used in the study.
HCT116 cells were grown in McCoy's 5A medium containing 10% fetal calf serum in 5% CO2 incubator at 37° C. Cells were pelleted by centrifugation at 1000-rpm for 10 minutes. Cells were resuspended in sterile 1×PBS to get a count of 25×10^6 cells per mL, 0.2 mL of this cell suspension (corresponding to 5×10^6 cells) was injected by subcutaneous (s.c.) route in SCID mice. Mice were observed every alternate day for palpable tumor mass. Once the tumor size reached a size of 5-7 mm in diameter, animals were randomized into respective treatment groups. Dose was administered every day for 14 days. Tumor size was recorded on every second day.
Tumor weight (mg) was estimated according to the formula for a prolate ellipsoid: {Length (mm)×[width (mm)^2]×0.5}assuming specific gravity to be one and π to be three.
Tumor growth in compound treated animals was calculated as T/C (Treated/Control)×100% and Growth inhibition Percent (GI %) was [100−T/C %]. […]

As to `Cc1cccc(S(=O)(=O)n2c(=O)n(-c3ccc(C(C)(C)C#N)cc3)c3c4cc(Br)ccc4ncc32)c1` [Example 3, 2-(4-(8-Bromo-2-oxo-3-(m-tolylsulfonyl)-2,3-dihydro-1H-imidazo[4,5-c]quinolin-1-yl)phenyl)-2-methylpropanenitrile], the concentration for half-maximal inhibition (IC50) in assay [1] was 1000 to 3000 nM; in assay [2], 1000 to 3000 nM; in assay [3] it was greater than 3000 nM. The molecule also came in with an inhibition at 10 µM in assay [4] of 10 to 50%.
On to `C/C=C/C(=O)n1c(=O)n(-c2ccc(C(C)(C)C#N)cc2)c2c3cc(Br)ccc3ncc21` [Example 27, (E)-2-(4-(8-Bromo-3-but-2-enoyl-2-oxo-2,3-dihydro-1H-imidazo[4,5-c]quinolin-1-yl)phenyl)-2-methylpropanenitrile], for which the inhibition at 10 µM in assay [5] and in assay [4] was greater than 50% in each case. Besides, the results for the half-inhibitory concentration (IC50) in assay [1] and in assay [2] were 1000 to 3000 nM and no more than 1000 nM, respectively. Moreover, the “% growth inhibition on 14th day” value in assay [6] is listed as 36%.
With `CC(C)(C#N)c1ccc(-n2c(=O)n(C(=O)c3ccccc3)c3cnc4ccc(Br)cc4c32)cc1` [Example 30, 2-(4-(3-Benzoyl-8-bromo-2-oxo-2,3-dihydro-1H-imidazo[4,5-c]quinolin-1-yl)phenyl)-2-methylpropanenitrile], the inhibition at 10 µM in assay [5] and in assay [4] was 10 to 50% each time. Further, the IC50 is no more than 1000 nM in assay [1], 1000 to 3000 nM in assay [2] and no more than 1000 nM in assay [3]. In addition, the “% growth inhibition on 14th day” value in assay [6] is 35%.
Take `CC(C)(C#N)c1ccc(-n2c(=O)n(C(=O)c3ccccc3)c3cnc4ccc(Cl)cc4c32)cc1` [Example 37, 2-(4-(3-Benzoyl-8-chloro-2-oxo-2,3-dihydro-1H-imidazo[4,5-c]quinolin-1-yl)phenyl)-2-methylpropanenitrile]: the inhibition at 10 µM in assay [5] lay in the range of 10 to 50%. In addition, the IC50 in assay [1] and in assay [3] was greater than 3000 nM in each case.
With `C/C=C/C(=O)n1c(=O)n(-c2ccc(C(C)(C)C#N)cc2)c2c3cc(Cl)ccc3ncc21` [Example 38, (E)-2-(4-(3-But-2-enoyl-8-chloro-2-oxo-2,3-dihydro-1H-imidazo[4,5-c]quinolin-1-yl)phenyl)-2-methylpropanenitrile], the inhibition at 10 µM in assay [5] and in assay [4] was greater than 50% each time. Further, the IC50 is greater than 3000 nM in assay [1] and no more than 1000 nM in assay [2]. Moreover, in assay [6], the “% growth inhibition on 14th day” value is given as 17%.

The term IC50 denotes the concentration that gives 50% inhibition. As usually defined, the inhibition is the change of the read-out against control, counted positive when it falls. Lower therefore signals little suppression.
